# Data from ChEMBL document CHEMBL5331124, “Degradation of Hexokinase 2 Blocks Glycolysis and Induces GSDME-Dependent Pyroptosis to Amplify Immunogenic Cell Death for Breast Cancer Therapy” (J Med Chem, 2023).
# Activity calls are given as the source filed them. The calls are words filed in the database; no cut-off is given here.
# Columns and labels:
# [1] = system: 4T1; assay: Antitumor activity against mouse 4T1 cells implanted in BALB/c mouse assessed as reduction in tumor volume at 50 mg/kg, ip measured after 23 days in presence of cisplatin; format: functional, organism-based; details: time 23.0 day
# [2] = molecular target: T1, Hexokinase-2 (Homo sapiens) (UniProt P52789); assay: Induction of HK2 degradation in human MDA-MB-231 cells measured for 36 hrs by confocal microscopic analysis; format: cell-based; details: dose 2.0 µM
# T1 sequence (whole entry): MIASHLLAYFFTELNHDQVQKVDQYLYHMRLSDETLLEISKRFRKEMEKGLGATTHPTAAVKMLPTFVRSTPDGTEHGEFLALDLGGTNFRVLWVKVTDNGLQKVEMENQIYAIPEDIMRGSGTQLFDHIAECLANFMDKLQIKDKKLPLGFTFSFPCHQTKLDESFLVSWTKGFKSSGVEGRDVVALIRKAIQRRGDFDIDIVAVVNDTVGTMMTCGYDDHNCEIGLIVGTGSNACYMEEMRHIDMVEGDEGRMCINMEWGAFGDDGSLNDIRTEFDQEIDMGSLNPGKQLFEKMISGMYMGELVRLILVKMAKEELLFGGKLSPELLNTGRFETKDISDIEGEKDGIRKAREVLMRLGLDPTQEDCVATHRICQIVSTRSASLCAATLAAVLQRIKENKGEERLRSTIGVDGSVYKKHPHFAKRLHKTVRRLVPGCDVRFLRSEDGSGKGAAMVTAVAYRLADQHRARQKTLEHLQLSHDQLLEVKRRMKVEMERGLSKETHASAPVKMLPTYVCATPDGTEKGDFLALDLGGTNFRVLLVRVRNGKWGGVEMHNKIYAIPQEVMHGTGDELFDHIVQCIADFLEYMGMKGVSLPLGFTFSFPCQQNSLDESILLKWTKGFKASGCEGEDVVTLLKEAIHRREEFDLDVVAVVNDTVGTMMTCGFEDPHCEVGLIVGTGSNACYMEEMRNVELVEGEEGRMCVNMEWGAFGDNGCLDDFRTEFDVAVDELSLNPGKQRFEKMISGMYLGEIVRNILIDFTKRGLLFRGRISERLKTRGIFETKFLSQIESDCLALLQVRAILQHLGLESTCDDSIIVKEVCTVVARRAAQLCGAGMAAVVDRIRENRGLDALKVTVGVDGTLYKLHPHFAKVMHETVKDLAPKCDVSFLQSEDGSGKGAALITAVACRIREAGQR
# [3] = Toxicity in BALB/c mouse implanted with mouse 4T1 cells assessed as pathological changes in spleen at 50 mg/kg, ip measured after 25 days in presence of cisplatin by Hematoxylin -eosin staining based analysis; format: organism-based; details: in vivo, 600 h, time 25 day
# [4] = system: 4T1; assay: Antitumor immunity against mouse 4T1 cells implanted in BALB/c mouse model assessed as reduction tumor cell proliferation at 50 mg/kg, ip measured after 25 days by Ki67 staining based analysis; format: functional, organism-based; details: time 25.0 day
# [5] = Toxicity in BALB/c mouse implanted with mouse 4T1 cells assessed as effect on platelet count at 50 mg/kg, ip measured after 25 days by routine blood test; format: organism-based; details: in vivo, 600 h, time 25 day
# [6] = Toxicity in BALB/c mouse implanted with mouse 4T1 cells assessed as effect on mean corpuscular hemoglobin at 50 mg/kg, ip measured after 25 days in presence of cisplatin by routine blood test; format: organism-based; details: in vivo, 600 h, time 25 day
# [7] = system: 4T1; assay: Downregulation of PD-L1 expression in mouse 4T1 cells membrane at 20 uM measured for 36 hrs; format: functional, cell membranes
# [8] = system: HGC-27; assay: Potency index, ratio of IC50 for lonidamine to test compound IC50 for human HGC-27 cells assessed as cell growth inhibition measured for 72 hrs by MTT assay; format: functional
# [9] = system: 4T1; assay: Antiproliferative activity against mouse 4T1 cells assessed as cell growth inhibition measured for 72 hrs by MTT assay; format: functional, cell-based; details: 4T1, 72 h
# [10] = Toxicity in BALB/c mouse implanted with mouse 4T1 cells assessed as effect on hematocrit level at 50 mg/kg, ip measured after 25 days in presence of cisplatin by routine blood test; format: organism-based; details: in vivo, 600 h, time 25 day
# [11] = system: 4T1; assay: Induction of pyroptosis in mouse 4T1 cells assessed as viable cells at 20 uM incubated for 36 hrs by annexin V-FITC staining based flow cytometry analysis (reference value: 64 %); format: functional; details: read-out: Activity
# [12] = system: MDA-MB-231; assay: Induction of pyroptosis in human MDA-MB-231 cells assessed as decrease in full length GSDME level at 20 uM incubated for 36 hrs by Western blot analysis; format: functional, cell-based
# [13] = Toxicity in BALB/c mouse implanted with mouse 4T1 cells assessed as pathological changes in lung at 50 mg/kg, ip measured after 25 days by Hematoxylin -eosin staining based analysis; format: organism-based; details: in vivo, 600 h, time 25 day
# [14] = Toxicity in BALB/c mouse implanted with mouse 4T1 cells assessed as pathological changes in kidney at 50 mg/kg, ip measured after 25 days by Hematoxylin -eosin staining based analysis; format: organism-based; details: in vivo, 600 h, time 25 day
# [15] = Toxicity in BALB/c mouse implanted with mouse 4T1 cells assessed as effect on mean corpuscular volume at 50 mg/kg, ip measured after 25 days in presence of cisplatin by routine blood test; format: organism-based; details: in vivo, 600 h, time 25 day
# [16] = Cytotoxicity against human HUVEC-T1 cell assessed as inhibition of cell growth at 1 to 100 uM incubated for 48 hrs by CCK-8 assay; format: toxicity, cell-based; details: dose 1-100 µM
# [17] = Toxicity in BALB/c mouse implanted with mouse 4T1 cells assessed as change in body weight at 50 mg/kg, ip measured after 23 days in presence of cisplatin; format: organism-based; details: in vivo, 552 h, time 23 day
# [18] = system: MDA-MB-231; assay: Induction of pyroptosis in human MDA-MB-231 cells assessed as increase in cleaved caspase-3 level level at 20 uM incubated for 36 hrs by Western blot analysis; format: functional, cell-based
# [19] = system: 4T1; assay: Antitumor immunity against mouse 4T1 cells implanted in BALB/c mouse model assessed as increase in HMGB1 release in cell supernatant at 20 uM measured for 36 hrs by ELISA analysis; format: functional, cell-based
# [20] = system: 4T1; assay: Antitumor immunity against mouse 4T1 cells implanted in BALB/c mouse model assessed as increase in CRT accumulation in tumor; format: functional, cell-based
# [21] = system: HUVEC-T1 cell; assay: Inhibition of colony formation in human HUVEC-T1 cell at 5 to 20 uM incubated for 48 hrs by giemsa staining based analysis; format: functional; details: dose 5-20 µM
# [22] = molecular target: Protein cereblon/Hexokinase-2 (Mus musculus) (UniProt O08528+Q8C7D2); assay: PROTAC activity at CRBN/HK2 in mouse 4T1 cells assessed as […] ternary complex formation at 10 uM incubated for 24 hrs; format: cell-based
# Chain of Protein cereblon/Hexokinase-2 (Mus musculus) (O08528 whole entry, looked up): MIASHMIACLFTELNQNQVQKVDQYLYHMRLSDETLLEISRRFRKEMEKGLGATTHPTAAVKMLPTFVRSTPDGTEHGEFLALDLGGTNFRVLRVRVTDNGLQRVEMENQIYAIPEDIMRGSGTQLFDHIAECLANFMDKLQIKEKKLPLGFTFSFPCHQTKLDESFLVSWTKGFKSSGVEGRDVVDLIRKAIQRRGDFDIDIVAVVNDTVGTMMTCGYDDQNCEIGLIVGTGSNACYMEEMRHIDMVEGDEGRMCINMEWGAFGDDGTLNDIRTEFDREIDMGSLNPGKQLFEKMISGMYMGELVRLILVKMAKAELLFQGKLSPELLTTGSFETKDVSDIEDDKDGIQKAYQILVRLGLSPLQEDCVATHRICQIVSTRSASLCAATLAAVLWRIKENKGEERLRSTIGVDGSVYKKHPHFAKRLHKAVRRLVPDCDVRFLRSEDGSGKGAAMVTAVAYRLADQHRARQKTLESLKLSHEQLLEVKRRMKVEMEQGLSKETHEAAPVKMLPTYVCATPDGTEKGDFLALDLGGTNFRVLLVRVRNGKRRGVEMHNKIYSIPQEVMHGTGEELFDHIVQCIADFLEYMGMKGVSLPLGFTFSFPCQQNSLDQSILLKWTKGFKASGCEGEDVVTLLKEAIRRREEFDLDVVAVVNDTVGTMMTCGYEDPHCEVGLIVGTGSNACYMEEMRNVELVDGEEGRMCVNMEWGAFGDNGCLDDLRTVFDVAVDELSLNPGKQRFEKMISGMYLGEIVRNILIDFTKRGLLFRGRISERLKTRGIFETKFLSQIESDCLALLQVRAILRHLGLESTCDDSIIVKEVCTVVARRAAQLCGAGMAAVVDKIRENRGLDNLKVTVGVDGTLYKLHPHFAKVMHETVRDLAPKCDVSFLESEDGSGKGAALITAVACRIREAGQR
# Chain of Protein cereblon/Hexokinase-2 (Mus musculus) (Q8C7D2 whole entry, looked up): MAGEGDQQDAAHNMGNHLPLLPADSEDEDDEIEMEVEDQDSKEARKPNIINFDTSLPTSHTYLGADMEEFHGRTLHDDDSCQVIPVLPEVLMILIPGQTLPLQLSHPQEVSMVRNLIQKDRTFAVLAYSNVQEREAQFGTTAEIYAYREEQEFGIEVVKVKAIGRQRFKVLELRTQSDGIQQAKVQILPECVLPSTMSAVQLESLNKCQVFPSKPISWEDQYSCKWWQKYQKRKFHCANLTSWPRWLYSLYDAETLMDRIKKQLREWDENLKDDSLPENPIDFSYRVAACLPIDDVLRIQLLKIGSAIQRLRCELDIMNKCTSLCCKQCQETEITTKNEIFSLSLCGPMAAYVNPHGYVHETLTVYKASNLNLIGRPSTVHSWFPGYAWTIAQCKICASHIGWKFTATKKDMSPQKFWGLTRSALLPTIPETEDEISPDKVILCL
# [23] = Toxicity in BALB/c nude mouse xenografted with human MDA-MB-231 cells assessed as effect on mean corpuscular hemoglobin at 50 mg/kg, ip measured after 30 days by routine blood test; format: organism-based; details: in vivo, 720 h, time 30 day
# [24] = Toxicity in BALB/c mouse implanted wth mouse 4T1 cells assessed as effect on body weight at 50 mg/kg, ip measured after 23 days; format: organism-based; details: in vivo, 552 h, time 23 day
# [25] = system: 4T1; assay: Antitumor activity against mouse 4T1 cells implanted in BALB/c mouse assessed as reduction in HK2 proetin level […] at 50 mg/kg, ip measured after 25 days in presence of cisplatin by Western blot analysis; format: functional, organism-based; details: time 25.0 day
smiles,measurement,setting,value
O=C1CCC(N2C(=O)c3cccc(NCCCCNC(=O)c4nn(Cc5ccc(Cl)cc5Cl)c5ccccc45)c3C2=O)C(=O)N1 (stereo not given),Activity,[1],Active
same,Activity,[2],Dose-Dependent Effect
same,Activity,[3],Non-Toxic
same,Activity,[4],Active
same,Activity,[5],Non-Toxic
same,Activity,[6],Non-Toxic
same,Activity,[7],Active
same,Ratio IC50,[8],12.7
same,IC50,[9],5.08 µM
same,Activity,[10],Non-Toxic
same,viability at 20 µM,[11],37.7%
same,Activity,[12],Active
same,Activity,[13],Non-Toxic
same,Activity,[14],Non-Toxic
same,Activity,[15],Non-Toxic
same,Activity,[16],Toxic
same,Activity,[17],Non-Toxic
same,Activity,[18],Active
same,Activity,[19],Active
same,Activity,[20],Active
same,inhibition,[21],inactive
same,Activity,[22],Active
same,Activity,[23],Non-Toxic
same,Activity,[24],Non-Toxic
same,Activity,[25],Active
